Like-named read-outs stand apart in the source and are kept apart here.
Columns and labels:
[1] = tested on: T47D; test: Caspase cascade activation assay (N-(Ac-DEVD)-N'-ethoxycarbonyl-R110 fluorogenic substrate) in T47D cells; assay type: cell-based, Human; conditions: 24 h incubation; for EC50 / EC50 (nM) caspase potency: sigmoidal dose-response; for EC50: read-out: EC50 (nM) caspase potency; for Caspase activity Ratio: ratio of net RFU of test compound to control, 0.16 to 10 μM final
Description: (§1) Human breast cancer cell lines T47D and ZR75-1 were grown according to media component mixtures designated by American Type Culture Collection +10% FCS (Invitrogen Corporation, Life Technologies Division), in a 5% CO2 −95% humidity incubator at 37° C. T47D and ZR75-1 cells were maintained at a cell density between 30 and 80% confluency at a cell density of 0.1 to 0.6×10^6 cells/ml. Cells were harvested at 600xg and resuspended at 0.65×10^6 cells/ml into appropriate media +10% FCS. An aliquot of 45 μl of cells was added to a well of a 96-well microtiter plate containing 5 μl of a 10% DMSO in RPMI-1640 media solution containing 1.6 to 100 μM of N-(4-methoxy-2-nitrophenyl)-3-pyridinecarboxamide or other test compound (0.16 to 10 μM final). An aliquot of 45 μl of cells was added to a well of a 96-well microtiter plate containing 5 μl of a 10% DMSO in RPMI-1640 media solution without test compound as the control sample. The samples were mixed by agitation and then incubated at 37 C. for 24 h in a 5% CO2 −95% humidity incubator. After incubation, the samples were removed from the incubator and 50 μl of a solution containing 20 μM of N-(Ac-DEVD)-N′-ethoxycarbonyl-R110 (SEQ ID NO: 1) fluorogenic substrate (Cytovia, Inc.; WO99/18856), 20% sucrose (Sigma), 20 mM DTT (Sigma), 200 mM NaCl (Sigma), 40 mM Na PIPES buffer pH 7.2 (Sigma), and 500 μg/ml lysolecithin (Calbiochem) was added. The samples were mixed by agitation and incubated at room temperature. Using a fluorescent plate reader (Model 1420 Wallac Instruments), an initial reading (T=0) was made approximately 1-2 min after addition of the substrate solution, employing excitation at 485 nm and emission at 530 nm, to determine the background fluorescence of the control sample. After the 3 h incubation, the samples were read for fluorescence as above (T=3 h).
(§2) The Relative Fluorescence Unit values (RFU) were used to calculate the sample readings as follows:
(§3) RFU(T=3h)−Control RFU(T=0)=Net RFU(T=3h).
(§4) The activity of caspase cascade activation was determined by the ratio of the net RFU value for N-(4-methoxy-2-nitrophenyl)-3-pyridinecarboxamide or other test compound to that of control samples. The EC50 (nM) was determined by a sigmoidal dose-response calculation (Prism 2.0, GraphPad Software Inc.).

[2] = tested on: ZR75-1; test: Caspase cascade activation assay (N-(Ac-DEVD)-N'-ethoxycarbonyl-R110 fluorogenic substrate) in ZR75-1 cells; assay type: cell-based, Human; conditions: for EC50 / EC50 (nM) caspase potency: sigmoidal dose-response; for EC50: read-out: EC50 (nM) caspase potency; for Caspase activity Ratio: ratio of net RFU of test compound to control, 0.16 to 10 μM final
Description: as §1, §2, §3, §4

[3] = Homo sapiens, ZR-75-1, 24 h incubation

Compound: 4-Chloro-N-(4-ethoxy-2-nitrophenyl)-benzoylamide [Example 18]
- EC50 [1]: 6750 nM
- Caspase activity Ratio [1]: 3.0
- EC50 ([2]; 24 h incubation): 3840 nM
- Caspase activity Ratio ([2]; 24 h incubation): 5.1

Compound: O=C(Nc1ccc(C(F)(F)F)cc1[N+](=O)[O-])c1ccc(Cl)nc1 [Example 1, 6-Chloro-N-(2-nitro-4-trifluoromethylphenyl)-3-pyridinecarboxamide]
- EC50 ([1]; Homo sapiens): 2970 nM
- Caspase activity Ratio [1]: 8.9
- EC50 [2, 3]: 729 nM
- Caspase activity Ratio ([2]; 24 h incubation): 3.6

Compound: O=C(Nc1ccc(Cl)cc1[N+](=O)[O-])c1ccc(Cl)nc1 [Example 2, 6-Chloro-N-(4-chloro-2-nitrophenyl)-3-pyridinecarboxamide]
- EC50 ([1]; Homo sapiens): 587 nM
- Caspase activity Ratio [1]: 7.8
- EC50 [2, 3]: 329 nM
- Caspase activity Ratio ([2]; 24 h incubation): 5.8

Compound: O=C(Nc1ccc(F)cc1[N+](=O)[O-])c1ccc(Cl)nc1 [Example 3, 6-Chloro-N-(4-fluoro-2-nitrophenyl)-3-pyridinecarboxamide]
- EC50 (nM) caspase potency [1]: Inactive
- Caspase activity Ratio [1]: Inactive
- EC50 [2, 3]: 4620 nM
- Caspase activity Ratio ([2]; 24 h incubation): 2.1

Compound: COc1cc([N+](=O)[O-])c(NC(=O)c2ccc(Cl)nc2)cc1Br [Example 4, 6-Chloro-N-(3-bromo-4-methoxy-6-nitrophenyl)-3-pyridinecarboxamide]
- EC50 (nM) caspase potency [1]: Inactive
- Caspase activity Ratio [1]: Inactive
- EC50 [2, 3]: 4030 nM
- Caspase activity Ratio ([2]; 24 h incubation): 3.2

Compound: COc1ccc(NC(=O)c2ccc(Cl)nc2)c(OC)c1 [Example 5, 6-Chloro-N-(2,4-dimethoxyphenyl)-3-pyridinecarboxamide]
- EC50 (nM) caspase potency [1]: Inactive
- Caspase activity Ratio [1]: Inactive
- EC50 (nM) caspase potency ([2]; 24 h incubation): Inactive
- Caspase activity Ratio ([2]; 24 h incubation): Inactive

Compound: COc1ccc(NC(=O)c2cccnc2Cl)c([N+](=O)[O-])c1 [Example 6, 2-Chloro-N-(4-methoxy-2-nitrophenyl)-3-pyridinecarboxamide]
- EC50 (nM) caspase potency [1]: Inactive
- Caspase activity Ratio [1]: Inactive
- EC50 (nM) caspase potency ([2]; 24 h incubation): Inactive
- Caspase activity Ratio ([2]; 24 h incubation): Inactive

Compound: COc1ccc(NC(=O)c2ccc(Cl)nc2)c([N+](=O)[O-])c1 [Example 7, 6-Chloro-N-(4-methoxy-2-nitrophenyl)-3-pyridinecarboxamide]
- EC50 ([1]; Homo sapiens): 593 nM
- Caspase activity Ratio [1]: 8.1
- EC50 [2, 3]: 230 nM
- Caspase activity Ratio ([2]; 24 h incubation): 2.7

Compound: Cc1ccc(NC(=O)c2ccc(Cl)nc2)c([N+](=O)[O-])c1 [Example 9, 6-Chloro-N-(4-methyl-2-nitrophenyl)-3-pyridinecarboxamide]
- EC50 ([1]; Homo sapiens): 920 nM
- Caspase activity Ratio [1]: 5.4
- EC50 [2, 3]: 488 nM
- Caspase activity Ratio ([2]; 24 h incubation): 5.0

Compound: O=C(Nc1ccccc1[N+](=O)[O-])c1ccc(Cl)nc1 [Example 10, 6-Chloro-N-(2-nitrophenyl)-3-pyridinecarboxamide]
- EC50 (nM) caspase potency [1]: Inactive
- Caspase activity Ratio [1]: Inactive
- EC50 (nM) caspase potency ([2]; 24 h incubation): Inactive
- Caspase activity Ratio ([2]; 24 h incubation): Inactive

Compound: COc1ccc(NC(=O)c2ccc(Cl)nc2)cc1 [Example 11, 6-Chloro-N-(4-methoxyphenyl)-3-pyridinecarboxamide]
- EC50 (nM) caspase potency [1]: Inactive
- Caspase activity Ratio [1]: Inactive
- EC50 (nM) caspase potency ([2]; 24 h incubation): Inactive
- Caspase activity Ratio ([2]; 24 h incubation): Inactive

— patent publication US6794397B2, “Substituted nicotinamides and analogs as activators of caspases and inducers of apoptosis and the use thereof” (Cytovia, Inc., priority 2000, dated 2004)
